Measurements as given in patent US11168083B2, “Inhibitors of Plasma Kallikrein and uses thereof” (Takeda Pharmaceutical Company Limited, priority 2017, dated 2021).

Biological target: human activated kallikrein enzyme (Homo sapiens (Human), UniProt P03952)
Experiment: Inhibition of human activated kallikrein enzyme, fluorogenic peptide substrate assay (two formats)
Type: biochemical
Settings: Table 2; column head prints nM, ranges defined in μM; read-out: pKal EC50
Protocol: The example compounds were evaluated for inhibition of the human activated kallikrein enzyme in two formats of an assay employing a fluorogenic peptide substrate. In one assay format, the concentrations of reagents were as follows: 20 mM Tris pH 7.5, 1 mM EDTA, 150 mM sodium chloride, 0.1% PEG-400, 0.1% Triton X-100, 500 pM activated kallikrein enzyme, 300 uM Pro-Phe-Arg-7-amido-4-methylcoumarin substrate. Prior to reaction initiation with substrate, enzyme and inhibitors were preincubated for 30 min at room temperature. After initiation with substrate, reactions were incubated for 10 min at room temperature and fluorescence emission at 460 nm from 380 nm excitation measured with a microplate reader. In another assay format, the concentrations of reagents were as follows: 20 mM Tris pH 7.5, 1 mM EDTA, 150 mM sodium chloride, 0.1% PEG-400, 0.1% Triton X-100, 5 pM activated kallikrein enzyme, 300 uM Pro-Phe-Arg-7-amido-4-methylcoumarin substrate. Prior to reaction initiation with substrate, enzyme and inhibitors were preincubated for 30 min at room temperature. After initiation with substrate, reactions were incubated for 18 hr at room temperature and fluorescence emission at 460 nm from 380 nm excitation measured with a microplate reader.

human activated kallikrein enzyme, sequence (P03952 391-638): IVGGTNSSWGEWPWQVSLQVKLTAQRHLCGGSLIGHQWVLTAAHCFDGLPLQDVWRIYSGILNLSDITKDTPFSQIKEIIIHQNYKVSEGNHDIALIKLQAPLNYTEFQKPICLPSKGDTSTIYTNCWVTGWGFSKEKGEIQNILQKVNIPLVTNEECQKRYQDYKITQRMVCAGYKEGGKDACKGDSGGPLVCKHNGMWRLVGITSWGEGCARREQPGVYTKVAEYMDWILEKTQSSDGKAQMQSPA
human activated kallikrein enzyme, sequence (P03952 20-390 partner): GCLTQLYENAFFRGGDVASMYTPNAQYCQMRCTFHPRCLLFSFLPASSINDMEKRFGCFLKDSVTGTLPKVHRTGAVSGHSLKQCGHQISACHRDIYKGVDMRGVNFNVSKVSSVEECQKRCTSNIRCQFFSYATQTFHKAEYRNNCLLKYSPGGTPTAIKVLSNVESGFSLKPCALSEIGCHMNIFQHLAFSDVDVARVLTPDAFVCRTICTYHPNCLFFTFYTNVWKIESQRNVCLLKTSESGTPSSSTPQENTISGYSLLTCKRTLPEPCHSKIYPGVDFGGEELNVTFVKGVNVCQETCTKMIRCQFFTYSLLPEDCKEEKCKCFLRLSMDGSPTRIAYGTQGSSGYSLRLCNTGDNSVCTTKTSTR

Compared with `N[C@@H]1C[C@@H](c2nc(C(=O)NCc3ccc4cc(Cl)ccc4c3)cs2)N(C(=O)c2cn3cc(Cl)ccc3n2)C1` [Compound 56, 2-((2S,4R)-4-amino-1-(6-chloroimidazo[1,2-a]pyridine-2-carbonyl)pyrrolidin-2-yl)-N-((6-chloronaphthalen-2-yl)methyl)thiazole-4-carboxamide], `NCc1ccc(CNC(=O)c2csc([C@@H]3C[C@@H](N)CN3C(=O)c3cn4cc(Cl)ccc4n3)n2)cc1` [Compound 50, 2-((2S,4R)-4-amino-1-(6-chloroimidazo[1,2-a]pyridine-2-carbonyl)pyrrolidin-2-yl)-N-(4-(aminomethyl)benzyl)thiazole-4-carboxamide] is lower in EC50: > 9900 nM for the first, 5000 to 9900 nM for the second.

`CNC(=O)[C@@H](CCCCNC(=N)N)NC(=O)c1csc([C@H]2CCCN2C(=O)c2cn3cc(Cl)ccc3n2)n1` [Compound 4, 2-((R)-1-(6-Chloroimidazo[1,2-a]pyridine-2-carbonyl)pyrrolidin-2-yl)-N—((R)-6-guanidino-1-(methylamino)-1-oxohexan-2-yl)thiazole-4-carboxamide] and `CNC(=O)[C@@H](CCCCNC(=N)N)NC(=O)c1csc([C@@H]2CCCN2C(=O)c2cn3cc(Cl)ccc3n2)n1` [Compound 34, 2-((S)-1-(6-Chloroimidazo[1,2-a]pyridine-2-carbonyl)pyrrolidin-2-yl)-N—((R)-6-guanidino-1-(methylamino)-1-oxohexan-2-yl)thiazole-4-carboxamide] cannot be ordered by EC50: > 9900 nM for the first, > 9900 nM for the second.

Compared with `CNC(=O)[C@H](CCCCNC(=N)N)NC(=O)c1csc([C@@H]2C[C@@H](N)CN2C(=O)c2cc3cc(C(F)(F)F)ccc3s2)n1` [Compound 64, 2-((2S,4R)-4-amino-1-(5-(trifluoromethyl)benzo[b]thiophene-2-carbonyl)pyrrolidin-2-yl)-N—((S)-6-guanidino-1-(methylamino)-1-oxohexan-2-yl)thiazole-4-carboxamide], `CNC(=O)[C@H](CCCCNC(=N)N)NC(=O)c1csc([C@@H]2C[C@@H](N)CN2C(=O)c2ccc3c(Cl)csc3c2)n1` [Compound 43, 2-((2S,4R)-4-amino-1-(3-chlorobenzo[b]thiophene-6-carbonyl)pyrrolidin-2-yl)-N—((S)-6-guanidino-1-(methylamino)-1-oxohexan-2-yl)thiazole-4-carboxamide] is higher in EC50: 100 to 1000 nM for the first, 5000 to 9900 nM for the second.

`CNC(=O)[C@H](CCCCNC(=N)N)NC(=O)c1csc([C@@H]2C[C@@H](N)CN2C(=O)c2cnc3ccc(Cl)cc3c2)n1` [Compound 66, 2-((2S,4R)-4-amino-1-(6-chloroquinoline-3-carbonyl)pyrrolidin-2-yl)-N—((S)-6-guanidino-1-(methylamino)-1-oxohexan-2-yl)thiazole-4-carboxamide] and `CNC(=O)[C@H](CCCCNC(=N)N)NC(=O)c1csc([C@@H]2C[C@@H](N)CN2C(=O)c2cn3ccccc3n2)n1` [Compound 13, 2-((2S,4R)-4-amino-1-(imidazo[1,2-a]pyridine-2-carbonyl)pyrrolidin-2-yl)-N—((S)-6-guanidino-1-(methylamino)-1-oxohexan-2-yl)thiazole-4-carboxamide] fall in the same range of EC50: 100 to 1000 nM for the first, 100 to 1000 nM for the second.

First: CNC(=O)[C@@H](CCCCNC(=N)N)NC(=O)c1csc([C@H]2C[C@H](O)CN2C(=O)c2cn3cc(Cl)ccc3n2)n1 [Compound 8, 2-((2R,4S)-1-(6-Chloroimidazo[,1,2-a]pyridine-2-carbonyl)-4-hydroxypyrrolidin-2-yl)-N—((R)-6-guanidino-1-(methylamino)-1-oxohexan-2-yl)thiazole-4-carboxamide]
Second: CNC(=O)[C@H](CCCCNC(=N)N)NC(=O)c1csc([C@@H]2C[C@H](O)CN2C(=O)c2cn3cc(Cl)ccc3n2)n1 [Compound 37, 2-((2S,4S)-1-(6-Chloroimidazo[1,2-a]pyridine-2-carbonyl)-4-hydroxypyrrolidin-2-yl)-N—((S)-6-guanidino-1-(methylamino)-1-oxohexan-2-yl)thiazole-4-carboxamide]
The EC50 of the first is higher: > 9900 nM for the first, 1000 to 5000 nM for the second.

Compared with `CNC(=O)[C@H](CCCCNC(=N)N)NC(=O)c1csc([C@@H]2C[C@@H](NC(C)=O)CN2C(=O)c2cn3cc(Cl)ccc3n2)n1` [Compound 35, 2-((2S,4R)-4-acetamido-1-(6-chloroimidazo[1,2-a]pyridine-2-carbonyl)pyrrolidin-2-yl)-N—((S)-6-guanidino-1-(methylamino)-1-oxohexan-2-yl)thiazole-4-carboxamide], `CNC(=O)[C@H](CCCCNC(N)=O)NC(=O)c1csc([C@@H]2C[C@@H](N)CN2C(=O)c2cn3cc(Cl)ccc3n2)n1` [Compound 27, 2-((2S,4R)-4-amino-1-(6-chloroimidazo[1,2-a]pyridine-2-carbonyl)pyrrolidin-2-yl)-N—((S)-1-(methylamino)-1-oxo-6-ureidohexan-2-yl)thiazole-4-carboxamide] is higher in EC50: 1000 to 5000 nM for the first, > 9900 nM for the second.

First: NCc1ccc(CCNC(=O)c2csc([C@@H]3C[C@@H](N)CN3C(=O)c3cn4cc(Cl)ccc4n3)n2)cc1 [Compound 54, 2-((2S,4R)-4-amino-1-(6-chloroimidazo[1,2-a]pyridine-2-carbonyl)pyrrolidin-2-yl)-N-(4-(aminomethyl)phenethyl)thiazole-4-carboxamide]
Second: N=C(N)c1ccc(CNC(=O)c2csc([C@@H]3C[C@@H](N)CN3C(=O)c3cn4cc(Cl)ccc4n3)n2)cc1 [Compound 47, 2-((2S,4R)-4-amino-1-(6-chloroimidazo[1,2-a]pyridine-2-carbonyl)pyrrolidin-2-yl)-N-(4-carbamimidoylbenzyl)thiazole-4-carboxamide]
The EC50 of the first is higher: 1000 to 5000 nM for the first, ≤ 100 nM for the second. The second is the more potent here.

`N[C@@H]1C[C@@H](c2nc(C(=O)NCc3n[nH]c4cc(Cl)ccc34)cs2)N(C(=O)c2cn3cc(Cl)ccc3n2)C1` [Compound 59, 2-((2S,4R)-4-amino-1-(6-chloroimidazo[1,2-a]pyridine-2-carbonyl)pyrrolidin-2-yl)-N-((6-chloro-1H-indazol-3-yl)methyl)thiazole-4-carboxamide] and `CNC(=O)[C@H](CCCCN)NC(=O)c1csc([C@@H]2C[C@@H](N)CN2C(=O)c2cn3cc(Cl)ccc3n2)n1` [Compound 25, 2-((2S,4R)-4-amino-1-(6-chloroimidazo[1,2-a]pyridine-2-carbonyl)pyrrolidin-2-yl)-N—((S)-6-amino-1-(methylamino)-1-oxohexan-2-yl)thiazole-4-carboxamide] cannot be ordered by EC50: > 9900 nM for the first, > 9900 nM for the second.

First: CNC(=O)[C@H](CCCCNC(=N)N)NC(=O)c1csc([C@@H]2C[C@@H](N)CN2C(=O)C2CCCCC2)n1 [Compound 17, 2-((2S,4R)-4-amino-1-(cyclohexanecarbonyl)pyrrolidin-2-yl)-N—((S)-6-guanidino-1-(methylamino)-1-oxohexan-2-yl)thiazole-4-carboxamide]
Second: CN(C)C(=O)[C@H](CCCCNC(=N)N)NC(=O)c1csc([C@@H]2C[C@@H](N)CN2C(=O)c2cn3cc(Cl)ccc3n2)n1 [Compound 24, 2-((2S,4R)-4-amino-1-(6-chloroimidazo[1,2-a]pyridine-2-carbonyl)pyrrolidin-2-yl)-N—((S)-1-(dimethylamino)-6-guanidino-1-oxohexan-2-yl)thiazole-4-carboxamide]
The EC50 of the first is higher: > 9900 nM for the first, 100 to 1000 nM for the second. The second is the more potent here.

In the case of `CNC(=O)[C@H](CCC(N)=O)NC(=O)c1csc([C@@H]2C[C@@H](N)CN2C(=O)c2cn3cc(Cl)ccc3n2)n1` [Compound 29, (S)-2-(2-((2S,4R)-4-amino-1-(6-chloroimidazo[1,2-a]pyridine-2-carbonyl)pyrrolidin-2-yl)thiazole-4-carboxamido)-N1-methylpentanediamide], the EC50 is reported as > 9900 nM.
